Legend:
[1] = test system: T1, B. anomalus β-glucosidase (YV396 β-glucosidase); assay: glucose release, GOD-PAP assay at […] nm, Michaelis-Menten fit; type: biochemical, Brettanomyces anomalus; conditions: McIlvaine buffer pH 5.75, 37 °C (optimum of this enzyme); free enzyme; read-out: pH 5.75 37°C / K M
T1 construct: gene GH3 beta-glucosidase; full gene (2523 bp incl. stop, about 840 residues), codon optimised, pET28-YV396-His6, tag kept, E. coli BL21(DE3), Ni-Sepharose and Superdex 200

[2] = test system: T2, almond β-glucosidase; assay: as above; type: biochemical, Prunus dulcis; conditions: McIlvaine buffer pH 5.75, 37 °C; commercial preparation; read-out: pH 5.75 37°C / K M
T2 construct: gene GH1 beta-glucosidase

| Km [1] | Km [2] | SMILES |
| --- | --- | --- |
| 15.1 ± 0.73 mM | 0.34 ± 0.08 mM | OC[C@H]1O[C@@H](O[C@H]2[C@H](O)[C@@H](O)C(O)O[C@@H]2CO)[C@H](O)[C@@H](O)[C@@H]1O (stereo partly drawn) [cellobiose] |
| 1.01 ± 0.18 mM | 19.6 ± 2.06 mM | OCc1ccccc1O[C@@H]1O[C@H](CO)[C@@H](O)[C@H](O)[C@H]1O [salicin] |

| SMILES | Km [1] | Km [2] |
| --- | --- | --- |
| N#C[C@H](O[C@@H]1O[C@H](CO[C@@H]2O[C@H](CO)[C@@H](O)[C@H](O)[C@H]2O)[C@@H](O)[C@H](O)[C@H]1O)c1ccccc1 [amygdalin] | 1 ± 0.05 mM | 10.1 ± 0.13 mM |
